Calls of active or inactive are those of the source. No rule for the calls is given here.
Tested on: CCRIS mutagenicity, Ames/micronucleus/aberration tests
Assay: CCRIS mutagenicity studies
[1] = Test System: AMES SALMONELLA TYPHIMURIUM, Strain/Indicator: TA98, Metabolic Activation: NONE, Method: STANDARD PLATE
[2] = Test System: AMES SALMONELLA TYPHIMURIUM, Strain/Indicator: TA98, Metabolic Activation: RAT, LIVER, S-9, AROCLOR 1254, Method: STANDARD PLATE
[3] = Test System: AMES SALMONELLA TYPHIMURIUM, Strain/Indicator: TA100, Metabolic Activation: NONE, Method: STANDARD PLATE
[4] = Test System: AMES SALMONELLA TYPHIMURIUM, Strain/Indicator: TA100, Metabolic Activation: RAT, LIVER, S-9, AROCLOR 1254, Method: STANDARD PLATE
[5] = Test System: AMES SALMONELLA TYPHIMURIUM, Strain/Indicator: TA102, Metabolic Activation: NONE, Method: STANDARD PLATE
[6] = Test System: AMES SALMONELLA TYPHIMURIUM, Strain/Indicator: TA102, Metabolic Activation: RAT, LIVER, S-9, AROCLOR 1254, Method: STANDARD PLATE
[7] = Test System: MOUSE LYMPHOMA, Strain/Indicator: L5178Y (TK+/TK-), Metabolic Activation: NONE, Method: SUSPENSION/PLATE
[8] = Test System: AMES SALMONELLA TYPHIMURIUM, Strain/Indicator: TA1535, Metabolic Activation: NONE, Method: STANDARD PLATE
[9] = Test System: AMES SALMONELLA TYPHIMURIUM, Strain/Indicator: TA1537, Metabolic Activation: NONE, Method: STANDARD PLATE
[10] = Test System: AMES SALMONELLA TYPHIMURIUM, Strain/Indicator: TA1538, Metabolic Activation: NONE, Method: STANDARD PLATE

O=C([O-])/C=C/C(=O)[O-].[Fe+2]
mutagenic call (Test System: AMES SALMONELLA TYPHIMURIUM, Strain/Indicator: TA98, Metabolic Activation: HAMSTER, LIVER, S-9, AROCLOR 1254, Method: STANDARD PLATE): active; positive
mutagenic call [1]: inactive; negative
mutagenic call [2]: active; positive
mutagenic call (Test System: AMES SALMONELLA TYPHIMURIUM, Strain/Indicator: TA100, Metabolic Activation: HAMSTER, LIVER, S-9, AROCLOR 1254, Method: STANDARD PLATE): inactive; negative
mutagenic call [3]: inactive; negative
mutagenic call [4]: inactive; negative
mutagenic call (Test System: AMES SALMONELLA TYPHIMURIUM, Strain/Indicator: TA102, Metabolic Activation: HAMSTER, LIVER, S-9, AROCLOR 1254, Method: STANDARD PLATE): inactive; negative
mutagenic call (Test System: AMES SALMONELLA TYPHIMURIUM, Strain/Indicator: TA102, Metabolic Activation: NONE, Method: PREINCUBATION): inactive; negative
mutagenic call [5]: inactive; negative
mutagenic call [6]: inactive; negative
mutagenic call [7]: active; positive. reevaluation of results: positive
mutagenic call (Test System: MOUSE LYMPHOMA, Strain/Indicator: L5178Y (TK+/TK-), Metabolic Activation: RAT, LIVER, S-9, AROCLOR 1254, Method: SUSPENSION/PLATE): inactive; negative. reevaluation of results: negative

O=C(O)CCCc1c[nH]c2ccccc12
mutagenic call (Test System: AMES SALMONELLA TYPHIMURIUM, Strain/Indicator: TA97A, Metabolic Activation: NONE, Method: STANDARD PLATE): inactive; negative
mutagenic call (Test System: AMES SALMONELLA TYPHIMURIUM, Strain/Indicator: TA97A, Metabolic Activation: RAT, LIVER, S-9, AROCLOR 1254, Method: STANDARD PLATE): inactive; negative
mutagenic call [1]: inactive; negative
mutagenic call [2]: inactive; negative
mutagenic call [3]: inactive; negative
mutagenic call [4]: inactive; negative
mutagenic call [8]: inactive; negative
mutagenic call (Test System: AMES SALMONELLA TYPHIMURIUM, Strain/Indicator: TA1535, Metabolic Activation: RAT, LIVER, S-9, AROCLOR 1254, Method: STANDARD PLATE): inactive; negative
mutagenic call [9]: inactive; negative
mutagenic call (Test System: AMES SALMONELLA TYPHIMURIUM, Strain/Indicator: TA1537, Metabolic Activation: RAT, LIVER, S-9, AROCLOR 1254, Method: STANDARD PLATE): inactive; negative
mutagenic call [10]: inactive; negative
mutagenic call (Test System: AMES SALMONELLA TYPHIMURIUM, Strain/Indicator: TA1538, Metabolic Activation: RAT, LIVER, S-9, AROCLOR 1254, Method: STANDARD PLATE): inactive; negative

O[C@@H]1[C@H]2O[C@H]2c2c(ccc3c2ccc2ccccc23)[C@H]1O
mutagenic call (Test System: AMES SALMONELLA TYPHIMURIUM, Strain/Indicator: TA97, Metabolic Activation: NONE, Method: PREINCUBATION): active; positive
mutagenic call (Test System: AMES SALMONELLA TYPHIMURIUM, Strain/Indicator: TA98, Metabolic Activation: NONE, Method: PREINCUBATION): active; positive
mutagenic call (Test System: AMES SALMONELLA TYPHIMURIUM, Strain/Indicator: TA100, Metabolic Activation: NONE, Method: PREINCUBATION): active; positive
mutagenic call (Test System: AMES SALMONELLA TYPHIMURIUM, Strain/Indicator: TA104, Metabolic Activation: NONE, Method: PREINCUBATION): active; positive
mutagenic call (Test System: CHINESE HAMSTER V-79, Strain/Indicator: V-79/6-THIOGUANINE, Metabolic Activation: NONE, Method: STANDARD PLATE): active; positive

CCN(CCCl)c1ccc(OCCCCCNc2c3ccccc3nc3ccccc23)cc1
mutagenic call (Test System: AMES SALMONELLA TYPHIMURIUM, Strain/Indicator: DG1588, Metabolic Activation: NONE, Method: STANDARD PLATE): inactive; negative
mutagenic call (Test System: AMES SALMONELLA TYPHIMURIUM, Strain/Indicator: DG1592, Metabolic Activation: NONE, Method: STANDARD PLATE): inactive; negative
mutagenic call (Test System: AMES SALMONELLA TYPHIMURIUM, Strain/Indicator: DG1593, Metabolic Activation: NONE, Method: STANDARD PLATE): active; positive
mutagenic call [1]: active; positive
mutagenic call [3]: active; positive
mutagenic call [5]: inactive; negative
mutagenic call (Test System: AMES SALMONELLA TYPHIMURIUM, Strain/Indicator: TA104, Metabolic Activation: NONE, Method: STANDARD PLATE): inactive; negative
mutagenic call [8]: inactive; negative
mutagenic call (Test System: AMES SALMONELLA TYPHIMURIUM, Strain/Indicator: TA1537 (PKM101), Metabolic Activation: NONE, Method: STANDARD PLATE): active; positive
mutagenic call [9]: active; positive
mutagenic call [10]: inactive; negative
mutagenic call (Test System: AMES SALMONELLA TYPHIMURIUM, Strain/Indicator: TA1975 (PKM101), Metabolic Activation: NONE, Method: STANDARD PLATE): inactive; negative
mutagenic call (Test System: AMES SALMONELLA TYPHIMURIUM, Strain/Indicator: TA1975, Metabolic Activation: NONE, Method: STANDARD PLATE): inactive; negative
mutagenic call (Test System: AMES SALMONELLA TYPHIMURIUM, Strain/Indicator: TA1977, Metabolic Activation: NONE, Method: STANDARD PLATE): active; positive
mutagenic call (Test System: AMES SALMONELLA TYPHIMURIUM, Strain/Indicator: TA1978 (PKM101), Metabolic Activation: NONE, Method: STANDARD PLATE): active; positive
mutagenic call (Test System: AMES SALMONELLA TYPHIMURIUM, Strain/Indicator: TA1978, Metabolic Activation: NONE, Method: STANDARD PLATE): inactive; negative
mutagenic call (Test System: AMES SALMONELLA TYPHIMURIUM, Strain/Indicator: TA4001, Metabolic Activation: NONE, Method: STANDARD PLATE): active; positive
mutagenic call (Test System: AMES SALMONELLA TYPHIMURIUM, Strain/Indicator: TA4006, Metabolic Activation: NONE, Method: STANDARD PLATE): inactive; negative

Clc1ccccn1
mutagenic call (Test System: AMES SALMONELLA TYPHIMURIUM, Strain/Indicator: TA97, Metabolic Activation: NONE, Method: STANDARD PLATE): inactive; negative
mutagenic call (Test System: AMES SALMONELLA TYPHIMURIUM, Strain/Indicator: TA97, Metabolic Activation: RAT, LIVER, S-9, AROCLOR 1254, Method: STANDARD PLATE): active; positive
mutagenic call [1]: inactive; negative
mutagenic call [2]: active; positive
mutagenic call [3]: inactive; negative
mutagenic call [4]: active; positive
mutagenic call [5]: inactive; negative
mutagenic call [6]: active; positive
mutagenic call (Test System: MOUSE LYMPHOMA, Strain/Indicator: L5178Y (TK+/TK-), Metabolic Activation: NONE): active; positive
mutagenic call (Test System: MOUSE LYMPHOMA, Strain/Indicator: L5178Y (TK+/TK-), Metabolic Activation: RAT, LIVER, S-9, AROCLOR 1254): active; positive

C=C(C)C(=O)OCCOCCOCCOCCOC(=O)C(=C)C
mutagenic call [7]: active; positive

Reference: PubChem BioAssay AID1259407 (Chemical Carcinogenesis Research Information System (CCRIS), 2018)
